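Method: 48-hour compound exposure of cells in 96-well plates, five concentrations, linear interpolation of endpoints. GI50 marks 50% less growth. TGI denotes the concentration required for complete inhibition of growth.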 Bounds are passed on as bounds.

Some test systems named below: BT-549 breast; HL-60(TB) leukemia; RPMI-8226 leukemia; SNB-75 CNS; SN12C renal; SK-MEL-5 melanoma; MALME-3M melanoma; ACHN renal; COLO 205 colon; HT29 colon.
Common to all, as to assay: inhibition of tumour cell growth, NCI panel, 48 h

As for `CCOP1(=O)OCC2OC(n3cnc4c(N)ncnc43)C(O)C2O1` (stereo not given), the TGI in the experiment on BT-549 breast, in the experiment on HL-60(TB) leukemia, with RPMI-8226 leukemia, in the experiment on SNB-75 CNS, in the experiment on SN12C renal and in the experiment with SK-MEL-5 melanoma was above 100 µM in each case. The TGI in the experiment on MALME-3M melanoma, with ACHN renal, with COLO 205 colon and with HT29 colon was above 100 µM each time.
With `CC1(CCCC2(C)CCNC2=O)OCCO1` (stereo not given), the TGI in the experiment with BT-549 breast, in the experiment with HL-60(TB) leukemia, with RPMI-8226 leukemia, in the experiment on SNB-75 CNS, in the experiment with SN12C renal and in the experiment on SK-MEL-5 melanoma was above 10 µM in each case. Further, the TGI with MALME-3M melanoma, with ACHN renal, with COLO 205 colon and with HT29 colon was above 10 µM each time.
As for `O=C(Cn1ccnc1[N+](=O)[O-])NCCO`, the TGI with BT-549 breast, with HL-60(TB) leukemia, in the experiment on RPMI-8226 leukemia, in the experiment with SNB-75 CNS, in the experiment on SN12C renal and in the experiment on SK-MEL-5 melanoma was above 100 µM throughout. For the same compound, the TGI in the experiment with MALME-3M melanoma, with ACHN renal, in the experiment on COLO 205 colon and with HT29 colon was above 100 µM throughout.
With `CCc1cc(C(N)=O)ccc1-n1nc(C(C)C)c2c(-n3cnc(-c4cnn(C)c4)c3)ccnc21`, the GI50 with BT-549 breast was 6.81 µM; with HL-60(TB) leukemia, 1.14 µM; in the experiment with RPMI-8226 leukemia it was 3.76 µM; in the experiment on SNB-75 CNS it was 4.11 µM; in the experiment on SN12C renal it was 0.761 µM; in the experiment with SK-MEL-5 melanoma, 3.98 µM. Further, the GI50 with MALME-3M melanoma was 1.05 µM; with ACHN renal it was 1.62 µM; with COLO 205 colon, 0.387 µM; in the experiment with HT29 colon, 0.474 µM. The TGI in the experiment with BT-549 breast, in the experiment with HL-60(TB) leukemia, with RPMI-8226 leukemia, in the experiment on SNB-75 CNS, with SN12C renal and with SK-MEL-5 melanoma was above 100 µM in each case. In addition, the figures for the TGI with MALME-3M melanoma, in the experiment with ACHN renal and in the experiment with HT29 colon were above 31.3 µM, above 100 µM and above 100 µM, respectively.
As for `CCN(CC)CCn1c(=N)n(CC(O)c2ccc(Cl)c(Cl)c2)c2ccccc21` (stereo not given), the GI50 was 14.5 µM in the experiment with BT-549 breast; 5.12 µM in the experiment on HL-60(TB) leukemia; 2.72 µM with RPMI-8226 leukemia; 10.6 µM with SNB-75 CNS; 8.79 µM with SN12C renal; 1.73 µM in the experiment with SK-MEL-5 melanoma. The GI50 in the experiment with MALME-3M melanoma is 2.23 µM; in the experiment on ACHN renal it was 11.9 µM; in the experiment with COLO 205 colon, 2.05 µM; in the experiment with HT29 colon, 3.3 µM. The TGI came to 28 µM with BT-549 breast; 22.2 µM in the experiment on HL-60(TB) leukemia; 8.02 µM with RPMI-8226 leukemia; 23.8 µM in the experiment on SNB-75 CNS; 24.2 µM with SN12C renal; 3.15 µM in the experiment with SK-MEL-5 melanoma. For the same compound, the TGI in the experiment with MALME-3M melanoma was 4.44 µM; in the experiment on ACHN renal, 24.4 µM; in the experiment on COLO 205 colon, 3.96 µM; in the experiment on HT29 colon it was 12.1 µM.
As for `O=C1CCC/C=C\C[C@H]2C=C(Cl)C(=O)/C2=C/C[C@H](CCCCC(F)(F)F)OC(=O)CCC/C=C\C[C@H]2C=C(Cl)C(=O)/C2=C/C[C@H](CCCCC(F)(F)F)O1`, the GI50 in the experiment with BT-549 breast is 0.183 µM; in the experiment on HL-60(TB) leukemia it was 0.362 µM; in the experiment on RPMI-8226 leukemia, 0.177 µM; with SNB-75 CNS, 1.23 µM; in the experiment with SK-MEL-5 melanoma, 0.412 µM; in the experiment on MALME-3M melanoma, 0.21 µM. For the same compound, the GI50 in the experiment with ACHN renal is 0.262 µM; with COLO 205 colon, 0.246 µM; with HT29 colon, 0.241 µM. Also, the TGI was 0.502 µM in the experiment with BT-549 breast; 3.6 µM in the experiment on HL-60(TB) leukemia; 0.528 µM in the experiment with RPMI-8226 leukemia; 6.24 µM in the experiment on SNB-75 CNS; 1.37 µM in the experiment with SK-MEL-5 melanoma; 0.694 µM in the experiment with MALME-3M melanoma. The TGI came out at 1.02 µM with ACHN renal, 0.859 µM in the experiment with COLO 205 colon and 0.807 µM with HT29 colon.
For the compound `N#Cc1c(N)nn(C(=O)c2ccc(NC(=O)c3ccccn3)cc2)c1-c1ccc(Cl)cc1`, the GI50 is 4.86 µM in the experiment on BT-549 breast; above 100 µM in the experiment with HL-60(TB) leukemia; above 100 µM in the experiment on RPMI-8226 leukemia; 1.86 µM with SNB-75 CNS; 6.42 µM with SN12C renal; 7.15 µM with SK-MEL-5 melanoma. Besides, the values for the GI50 in the experiment with MALME-3M melanoma, in the experiment with ACHN renal and in the experiment with HT29 colon were 2.35 µM, 3.48 µM and 3.55 µM, respectively. In addition, the TGI is above 100 µM in the experiment on BT-549 breast; above 100 µM in the experiment with HL-60(TB) leukemia; above 100 µM with RPMI-8226 leukemia; 4.07 µM in the experiment with SNB-75 CNS; above 100 µM in the experiment with SN12C renal; above 100 µM with SK-MEL-5 melanoma. The TGI with MALME-3M melanoma was 6.45 µM; in the experiment with ACHN renal, 15.5 µM; in the experiment on HT29 colon, above 100 µM.

These data come from PubChem BioAssay (NCI).
